Laboratory results as given in the METLIN SMRT retention time set (Domingo-Almenara et al. 2019).

Assay: gradient 5% acetonitrile 3 min, to 50% in 2 min, to 85% in 15 min, held 3 min, 100 µL/min
Conditions: column: Zorbax Extend-C18 2.1 x 50 mm; eluents: water / acetonitrile, 0.1% formic acid
How it was run: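 Mixtures of ~100 pure standards were chromatographed on a Zorbax Extend-C18 column (2.1 × 50 mm, 1.8 μm) at 100 μL/min using water and acetonitrile, each with 0.1% formic acid. Detection used a quadrupole time-of-flight mass spectrometer in positive and negative ionization mode, and data collection spanned 3 months. Retention time was obtained from adduct peaks picked computationally and each checked manually.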

SMILES | RP-LC retention time [s]
COc1ccc(NC(=O)N2CCC3(CC2)NC(=O)c2ccc(F)cc2N3C)cc1 | 727
COc1ccccc1-c1csc(-c2nnn(-c3ccc(F)cc3)c2N)n1 | 1070
Cc1nnsc1C(=O)N1CCC(CNC(=O)NC(c2ccccc2)c2ccccc2)CC1 | 759
CCc1noc2nc(C)n(CC(=O)NCc3ccccc3F)c(=O)c12 | 788
CC(C)C(=O)Nc1ccc(N2CCN(CC(=O)N3CCCC3)CC2)cc1C(=O)O | 587
CC1CCN(c2ccc(C(=O)NCC3CCCO3)cc2S(=O)(=O)N2CCC(C)CC2)CC1 (stereo unspecified) | 1170
COc1ccc2c(c1)C=C(C(=O)NCC(=O)c1cccs1)C=CO2 | 879
COCCNC(=O)c1nc(-c2ccnc(N3CCCCC3)c2)no1 | 612
O=C(Nc1nc(-c2ccc(Cl)cc2)cs1)c1ccc2c(c1)OCO2 | 1110
CC1=C(c2cccc(Cl)c2)S(=O)(=O)N=C1N1CCCN(C(=O)C2CC2)CC1 | 763
COCCOC(=O)C1=C(C)NC(=O)NC1c1cn(-c2ccccc2)nc1-c1cccs1 (stereo unspecified) | 742
COc1ccc(C(=O)Nc2ccc3nc(N4CCN(CCC#N)CC4)cc(C(=O)O)c3c2)cc1 | 599
c1nn2cnnc2cc1N1CCN(Cc2csc3c2CCCC3)CC1 | 609
CCN1C(=O)c2cc(C(=O)Nc3cc(C)cc(C)c3)nn2CC1(C)C(=O)NC1CCCC1 (stereo unspecified) | 917
O=C(NC1CCCC1)c1ccc2ccnc(N3CCN(c4ccc(F)cc4)CC3)c2c1 | 803
Cc1noc(C)c1S(=O)(=O)N1CCC(c2nnc(-c3ccco3)o2)CC1 | 756
Cc1ccc(Nc2ncccc2S(N)(=O)=O)c(F)c1 | 840
COc1ccccc1C(=O)Nc1ccc2c(c1)Sc1ncccc1C(=O)N2C | 810
COc1ccc(C2Cn3nnc(-c4nc(-c5cccc(F)c5)no4)c3CO2)cc1 (stereo unspecified) | 1100
COc1ccc(NC(=O)N2CCC3(CC2)NC(=O)c2ccccc2N3C)cc1 | 700
CC1CCN(C(=O)C2=CN(c3ccc4c(c3)OCCO4)c3ccccc3S2(=O)=O)CC1 | 899
CCC(NC(=O)c1nnc(-c2ccc(S(=O)(=O)N(C)C)cc2)o1)c1cccs1 (stereo unspecified) | 912

SMILES | RP-LC retention time [s]
O=C(CN1N=C(C(=O)Nc2ccc(F)cc2)CCC1=O)Nc1ccc(F)c(F)c1 | 838
Cc1c(NC(=O)c2cccs2)c(=O)n(-c2ccccc2)n1C | 600
CC(Oc1ccccc1)c1nc(-c2ccc3nnn(C)c3c2)no1 (stereo unspecified) | 1060
O=C1c2cc(O)cc(O)c2OC[C@@H]1c1ccc(O)c(O)c1 | 834
COc1cc(CNC(=O)C2CC(=O)N(c3ccc4oc(C)nc4c3)C2)cc(OC)c1 (stereo unspecified) | 687
CCOc1cc(=O)n2c(c1C(=O)N1CCC3(CC1)OCCO3)CCCCC2 | 639
COc1ccc(CNC(=O)c2cc3c(s2)N(C)CCC3)c(OC)c1 | 926
COc1ccc(NC(=O)c2nnc(C(=O)NCCc3c[nH]c4ccc(OC)cc34)s2)cc1 | 951
Cc1ccc(NC(=O)c2[nH]c3cc(C)sc3c2CN2CCOCC2)c(Cl)c1 | 731
Cc1ccc(NC(=O)c2cc(C(C)C)n3nccc3n2)c(F)c1 | 1270
O=C(NCc1ccc2c(c1)OCO2)C1CCCN(C(=O)c2cc(-c3ccncc3)n[nH]2)C1 (stereo unspecified) | 599
CCOc1ccc(C(O)CN2CCN(C3CCCCC3)CC2)cc1 (stereo unspecified) | 569
Cc1nn(CCCC(=O)Nc2cccc(F)c2)c(=O)c2nn(-c3ccccc3)c(C)c12 | 709
CCn1nccc1C(=O)N1CCCC1c1cccc(F)c1 (stereo unspecified) | 812
Cc1nn(C)c(C)c1S(=O)(=O)N1CCC(OCCOCc2ccccc2)CC1 | 896
O=C(NCc1cc(F)cc(F)c1)C1CCN(c2cnc(N3CCCC3)nc2)CC1 | 674
CC(C)c1cccc(NC(=O)c2cn(C)nc2S(=O)(=O)N2CCSCC2)c1 | 1090
Cc1nn(-c2ccc(-c3ccccc3)nn2)c(C)c1S(=O)(=O)N1CCCC(C)C1 (stereo unspecified) | 1170
CCc1nc2nccc(-c3ccc(OC)cc3)n2n1 | 784
COc1ccc(-c2noc(C3CCCN3C(=O)c3ccc(C)s3)n2)cc1 (stereo unspecified) | 996
O=C(Nc1ccccc1)N1CCC(n2cnc3ccc(F)cc3c2=O)CC1 | 742
COC(=O)C1=CN(c2cccc(F)c2)c2ccccc2S1(=O)=O | 796

SMILES | RP-LC retention time [s]
CC(=O)N(Cc1nn(C)c2c1CN(S(=O)(=O)c1cc(F)ccc1F)CC2)c1ccccc1 | 800
CC1Oc2ccccc2OC1C(=O)NCCn1nc(-c2ccco2)ccc1=O (stereo unspecified) | 722
CCn1cc(S(=O)(=O)N2CCC3(CC2)CN(Cc2ccc(OC)cc2)C3=O)cn1 | 729
COc1ccc(Cn2nc3c(S(=O)(=O)N4CCN(c5ccc(F)cc5)CC4)cccn3c2=O)cc1 | 905
COC(=O)CCNC(=O)C1c2ccccc2C(=O)N(Cc2ccco2)C12CCCCC2 (stereo unspecified) | 799
Cc1cc(CN2CCC(CNC(=O)C(=O)NCc3ccccc3Cl)CC2)c(C)o1 | 592
O=C(Nc1ccccc1)N1CCC(N(C(=O)C2CC2)C2CCOCC2)CC1 | 697
O=C(c1ccccc1)N1CCN(c2nc(CN3CCOCC3)cs2)CC1 | 852
O=C(Nc1ccc(F)cc1Cl)c1c(O)c2cccnc2n(-c2cccc(F)c2)c1=O | 1300
CS(=O)(=O)N1CCC(C(=O)Nc2cc(N3CCOCC3)ncn2)CC1 | 563
CCCCOc1ccc(-c2nc(C3CC(=O)N(c4ccc(OC)c(OC)c4)C3)no2)cc1 (stereo unspecified) | 1120
Cc1nn(C)c2nc(OC(C)C(=O)NCCc3ccc(Cl)cc3)cc(C(F)(F)F)c12 (stereo unspecified) | 1080
CCOC(=O)c1cc(C2CC2)nc2c1c(=O)n(Cc1cccc(C)c1)c(=O)n2C | 1230
COc1ccc(-c2nc(-c3cccc(-c4ccnn4C)c3)no2)cc1OC | 1020
CC(Cc1ccco1)NC(=O)Cn1cccc1-c1nnc(-c2ccccc2)o1 (stereo unspecified) | 898
Cc1noc(C)c1CNC(=O)CCCc1ccccc1 | 760
CCN(C(=O)Cc1c(C(=O)O)c(C)cn1C)c1ccccc1 | 722
CN1C(=O)c2ccccc2Oc2ccc(C(=O)NC3CCCCCC3)cc21 | 958
CN1C(=O)NC2(CCN(C(=O)c3cccs3)CC2)C1=O | 561
COc1ccc(NC(=O)NC2CCN(c3cc(N4CCCC4)cnn3)C2)cc1F (stereo unspecified) | 625
O=C(NCc1ccc(F)cc1)N1CCN(CCn2c(C(F)(F)F)nc3cccnc32)CC1 | 639
CCN1CCN(C(=O)CC(c2cc(OC)c(OC)c(OC)c2)N2Cc3ccccc3C2=O)CC1 (stereo unspecified) | 613
